Key:
Assay in all cases: relative viability (nuclei count vs DMSO), 5 days (fraction); higher = more cells survive
Cabozantinib + AZD7762 = compound: COc1cc2nccc(Oc3ccc(NC(=O)C4(C(=O)Nc5ccc(F)cc5)CC4)cc3)c2cc1OC [Cabozantinib] + NC(=O)Nc1cc(-c2cccc(F)c2)sc1C(=O)N[C@H]1CCCNC1 [AZD7762] (partner 0.2 µM)
In short: (§1)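 Lung cancer cell lines were seeded in 1536-well plates and dosed by pin tool the next day, with either a single drug or a fixed anchor-drug dose combined with five library-drug doses (not always all listed) spaced in √10 steps. Five days later, one step fixed the cells and stained their nuclei (final 0.05% Triton X-100, 1% formaldehyde, 1 ug/ml Hoechst), and nuclei were counted on 4× images. Relative viability is the nuclei count in treated wells divided by the count in vehicle wells, and each value is the median of duplicate plates.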

Kobe2602 + Palbociclib = compound: C1=CC(=CC=C1NC(=S)NNC2=C(C=C(C=C2[N+](=O)[O-])C(F)(F)F)[N+](=O)[O-])F [Kobe2602] + CC(=O)c1c(C)c2cnc(Nc3ccc(N4CCNCC4)cn3)nc2n(C2CCCC2)c1=O [Palbociclib] (partner 0.5 µM)
In short: as §1

Kobe2602 + Dasatinib = compound: C1=CC(=CC=C1NC(=S)NNC2=C(C=C(C=C2[N+](=O)[O-])C(F)(F)F)[N+](=O)[O-])F [Kobe2602] + Cc1nc(Nc2ncc(C(=O)Nc3c(C)cccc3Cl)s2)cc(N2CCN(CCO)CC2)n1 [Dasatinib] (partner 0.075 µM)
In short: as §1

Cabozantinib + OSI-027 = compound: COc1cc2nccc(Oc3ccc(NC(=O)C4(C(=O)Nc5ccc(F)cc5)CC4)cc3)c2cc1OC [Cabozantinib] + COc1cccc2cc(-c3nc([C@H]4CC[C@H](C(=O)O)CC4)n4ncnc(N)c34)[nH]c12 [OSI-027] (partner 0.5 µM)
In short: as §1

Cell Line	relative viability (Cabozantinib + AZD7762; first compound 0.02 µM)	relative viability (Cabozantinib + AZD7762; first compound 0.06325 µM)	relative viability (Cabozantinib + AZD7762; first compound 0.2 µM)	relative viability (Cabozantinib + AZD7762; first compound 0.6325 µM)	relative viability (Cabozantinib + AZD7762; first compound 2 µM)	relative viability (Kobe2602 + Palbociclib; first compound 0.2 µM)	relative viability (Kobe2602 + Palbociclib; first compound 0.6325 µM)	relative viability (Kobe2602 + Palbociclib; first compound 2 µM)	relative viability (Kobe2602 + Palbociclib; first compound 6.325 µM)	relative viability (Kobe2602 + Palbociclib; first compound 20 µM)	relative viability (Kobe2602 + Dasatinib; first compound 0.2 µM)	relative viability (Kobe2602 + Dasatinib; first compound 0.6325 µM)	relative viability (Kobe2602 + Dasatinib; first compound 2 µM)	relative viability (Kobe2602 + Dasatinib; first compound 6.325 µM)	relative viability (Kobe2602 + Dasatinib; first compound 20 µM)	relative viability (Cabozantinib + OSI-027; first compound 0.02 µM)	relative viability (Cabozantinib + OSI-027; first compound 0.06325 µM)	relative viability (Cabozantinib + OSI-027; first compound 0.2 µM)	relative viability (Cabozantinib + OSI-027; first compound 0.6325 µM)	relative viability (Cabozantinib + OSI-027; first compound 2 µM)
201T	0.624	0.736	0.591	0.675	0.695	0.378	0.375	0.351	0.394	0.322	0.618	0.59	0.568	0.497	0.484	0.453	0.877	0.772	0.877	0.774
A-427	0.757	0.806	0.788	0.772	0.683	0.593	0.571	0.522	0.606	0.532	0.673	0.766	0.675	0.701	0.779	0.375	0.537	0.468	0.486	0.472
ABC-1	0.678	0.843	0.733	0.844	0.632	0.579	0.762	0.559	0.853	0.739	0.615	0.568		0.769	0.47	0.538	0.497	0.489	0.567	0.456
COR-L23						0.31	0.296	0.275	0.318	0.333	0.507	0.561	0.482	0.55	0.555	0.88	0.965	0.94	0.895	0.784
COR-L 105						0.423	0.413	0.422	0.438	0.383	0.392	0.366	0.357	0.362	0.338	0.682	0.785		0.667	0.71
HCC-44	1.04	1.03	1.08	1.07	1.12	0.988	0.932	0.975	0.924	0.887							0.646	0.556	0.557	0.408
NCI-H520						0.239	0.217	0.249	0.231	0.205	0.205	0.233	0.197	0.222	0.202	0.215	0.289	0.247	0.286	0.218
NCI-H596	1.12	1.35	1.15	1.07	1.09						0.57	0.678	0.57	0.661	0.644	0.922	0.738	0.65	0.667	0.54
NCI-H661						0.405	0.416	0.428	0.414	0.475	0.799	1.09	0.904	0.847	0.758	0.667	0.686	0.673	0.675	0.687
NCI-H1563											0.473	0.473	0.466	0.467	0.527	0.762	0.743	0.757	0.718	0.684
NCI-H1623											0.577	0.555	0.427	0.532	0.575	0.392	0.483	0.38	0.414	0.436
NCI-H1648	0.792	0.737		0.721	0.73	0.237	0.275	0.248	0.228	0.283						0.255	0.256	0.278	0.281	0.266
NCI-H1650						0.36	0.35	0.365	0.366	0.261	0.285	0.396	0.285	0.255	0.227	0.597	0.724	0.438	0.622	0.484
NCI-H1703	0.118	0.129	0.133	0.136	0.139															
NCI-H2009						0.241	0.258	0.294	0.24	0.254	0.282	0.368	0.332	0.336	0.312	0.642	0.724	0.695	0.674	0.496
NCI-H2023						0.33	0.41	0.405	0.32	0.255	0.532	0.583	0.547	0.484	0.394	0.308	0.39	0.322	0.327	0.235
NCI-H2228						0.843	0.625	0.687	0.691	0.838	0.415	0.549	0.504	0.502	0.529	0.495	0.871	0.576	0.449	0.508
SK-LU-1						0.396	0.402	0.338	0.428	0.459	0.18	0.184	0.177	0.17	0.187	0.3	0.37	0.394	0.298	0.312
SK-MES-1						0.323	0.338	0.335	0.28	0.201	0.368	0.489	0.4	0.415	0.305	0.542	0.718	0.649	0.665	0.512
SW 1573						0.405	0.477	0.375	0.358	0.281	0.473	0.655	0.58	0.483	0.243	0.59	0.891	0.669	0.606	0.492
